Experimental data from PMC5864910, “Mutacin 1140 Lantibiotic Variants Are Efficacious Against Clostridium difficile Infection” (Frontiers in Microbiology, 2018).
≈ marks a conversion by molar mass, not a printed value. Where two headings read alike, the source gives them in different places. No end group written: not given here.

Legend:
[1] = test system: C. difficile UNT103-1; assay: Cannulated Syrian hamster efficacy/relapse model of C. difficile infection (cHCDAD); format: in vivo, Golden Syrian hamsters; settings: vancomycin 20 mg/Kg QD × 5 days, ileal canula, n = 6
[2] = test system: Clostridium difficile; settings: n = 3 strains; unit from method b19
[3] = test system: Staphylococcus aureus; settings: n = 5 strains; unit from method b19
[4] = test system: Mycobacterium phlei; assay: microbe, parasite or virus in culture; settings: Mycolicibacterium phlei
[5] = test system: Mycobacterium phlei
[6] = test system: HepG2 human hepatocellular carcinoma cells
Description: The HepG2 cytotoxicity evaluation was performed by MB Research Labs (Spinnerstown, PA, United States) by the Neutral Red Uptake Bioassay of HepG2 human hepatocellular carcinoma cells in culture (ATCC #HB-8065). Briefly, HepG2 cells were seeded in the central 60 wells of 96-well plates and maintained in culture for approximately 24 h. Following pre-incubation, the culture medium was replaced with culture medium containing increasing concentrations of the test articles or control in the vehicle. Test articles were tested in triplicate wells, and reported as the mean. The cells were incubated for 24 h and cell viability was determined by Neutral Red (NR) uptake. For this assay, the medium was then replaced with NR medium (50 μg/mL NR in Hanks’ Balance Salt Solution, HBSS) and the cells were incubated for an additional 3 h. Following uptake of NR, the medium was discarded, the wells were washed with HBSS, and lysing solution (50:49:1 ethanol:water:acetic acid) was added subsequently to each well. The plates were placed on a rocker for 30 min until NR had been extracted from the cells and formed a homogeneous solution. The absorbance of each well was measured at 540 nm on a μQuant^TM plate reader (Bio-Tek Instruments) using KCjunior^TM software. The mean of the outer wells (DMEM2-FBS) was used as a reference control. The mean percent viability was determined for each concentration compared to the vehicle-treated control.

[7] = test system: NMDA ion channel receptor; assay: Safety Screen 44: NMDA; format: binding, human
[8] = test system: Ca2+ Channel; assay: Safety Screen 44: Ca2+ Channel; format: binding, human
[9] = test system: Kv Channel; assay: Safety Screen 44: Kv Channel; format: binding, human
[10] = test system: Nav Channel; assay: Safety Screen 44: Nav Channel; format: binding, human
[11] = test system: BZD (central); assay: Safety Screen 44: BZD (central); format: binding, human
[12] = test system: Streptococcus pneumonia; assay: microbe, parasite or virus in culture; settings: Streptococcus pneumoniae, read-out: MIC to S. pneumoniae
[13] = test system: Pseudomonas aeruginosa; assay: MIC broth dilution, P. aeruginosa; format: cell-based
[14] = test system: Ca2+ Channel; assay: Safety Screen 44: Ca2+ Channel; format: binding, human; remark: listed apart in the source
[15] = test system: Kv Channel; assay: Safety Screen 44: Kv Channel; format: binding, human; remark: listed apart in the source
[16] = test system: Nav Channel; assay: Safety Screen 44: Nav Channel; format: binding, human; remark: listed apart in the source
[17] = test system: BZD (central); assay: Safety Screen 44: BZD (central); format: binding, human; remark: listed apart in the source
[18] = test system: C. difficile; parameters: method as in McBride and Sonenshein, 2011; settings: ref McBride and Sonenshein, 2011, cited from earlier work

CN[C@H](CC(C)C)C(=O)N[C@H]1C(=O)N[C@@H](CC(N)=O)C(=O)N[C@H]2C(=O)N[C@H]3C(=O)N[C@H](C(=O)N[C@H](C(=O)O)c4cc(O)cc(O)c4-c4cc3ccc4O)[C@H](O)c3ccc(c(Cl)c3)Oc3cc2cc(c3O[C@@H]2O[C@H](CO)[C@@H](O)[C@H](O)[C@H]2O[C@H]2C[C@](C)(N)[C@H](O)[C@H](C)O2)Oc2ccc(cc2Cl)[C@H]1O [vancomycin]
survival at day 21 [1]: 33% | MIC against C. difficile (range) [2]: 0.5 to 4 µg/mL | MIC against S. aureus (range) [3]: 0.125 to 2 µg/mL | MIC ([4]; read-out: MIC, M. phlei): 0.25 µg/mL (≈ 0.173 µM) | MIC ([4]; read-out: Minimum Inhibitory Concentration Mycobacterium phlei): 250 µg/mL (≈ 173 µM)

C=C1NC(=O)[C@H](C)NC(=O)[C@H](NC(=O)[C@H](CCCCN)NC(=O)[C@@H](N)Cc2ccccc2)CSC[C@@H](C(=O)N[C@H]2C(=O)N3CCC[C@H]3C(=O)NCC(=O)N[C@H](C(=O)N[C@@H](C)C(=O)N[C@@H](CCCNC(=N)N)C(=O)N/C(=C\C)C(=O)NCC(=O)N[C@@H]3CSC[C@@H]4NC(=O)[C@H](Cc5ccc(O)cc5)NC(=O)[C@@H](CS/C=C\NC4=O)NC(=O)[C@H](CC(N)=O)NC(=O)[C@H](Cc4ccccc4)NC3=O)CS[C@H]2C)NC(=O)[C@H](CC(C)C)NC1=O [W4A]
Minimum Inhibitory Concentration Mycobacterium phlei [5]: 2 µg/mL | HepG2 EC50 ([6]; 24 h): > 1001

C=C1NC(=O)[C@H](Cc2c[nH]c3ccccc23)NC(=O)[C@H](NC(=O)[C@H](CCCCN)NC(=O)[C@@H](N)Cc2ccccc2)CSC[C@@H](C(=O)N[C@H]2C(=O)N3CCC[C@H]3C(=O)NCC(=O)N[C@H](C(=O)N[C@@H](C)C(=O)N[C@@H](C)C(=O)N/C(=C\C)C(=O)NCC(=O)N[C@@H]3CSC[C@@H]4NC(=O)[C@H](Cc5ccc(O)cc5)NC(=O)[C@@H](CS/C=C\NC4=O)NC(=O)[C@H](CC(N)=O)NC(=O)[C@H](Cc4ccccc4)NC3=O)CS[C@H]2C)NC(=O)[C@H](CC(C)C)NC1=O [R13A]
Minimum Inhibitory Concentration Mycobacterium phlei [5]: 8 µg/mL

C=C1NC(=O)[C@H](Cc2c[nH]c3ccccc23)NC(=O)[C@H](NC(=O)[C@H](CCCCN)NC(=O)[C@@H](N)Cc2ccccc2)CSC[C@@H](C(=O)N[C@H]2C(=O)N3CCC[C@H]3C(=O)NCC(=O)N[C@H](C(=O)N[C@@H](C)C(=O)N[C@@H](CC(C)C)C(=O)N/C(=C\C)C(=O)NCC(=O)N[C@@H]3CSC[C@@H]4NC(=O)[C@H](Cc5ccc(O)cc5)NC(=O)[C@@H](CS/C=C\NC4=O)NC(=O)[C@H](CC(N)=O)NC(=O)[C@H](Cc4ccccc4)NC3=O)CS[C@H]2C)NC(=O)[C@H](CC(C)C)NC1=O [R13L]
Minimum Inhibitory Concentration Mycobacterium phlei [5]: 8 µg/mL

C=C1NC(=O)[C@H](Cc2c[nH]c3ccccc23)NC(=O)[C@H](NC(=O)[C@H](CCCCN)NC(=O)[C@@H](N)Cc2ccccc2)CSC[C@@H](C(=O)N[C@H]2C(=O)N3CCC[C@H]3C(=O)NCC(=O)N[C@H](C(=O)N[C@@H](C)C(=O)N[C@@H](CCCNC(=N)N)C(=O)N/C(=C\C)C(=O)NCC(=O)N[C@@H]3CSC[C@@H]4NC(=O)[C@H](Cc5ccc(O)cc5)NC(=O)[C@@H](CS/C=C\NC4=O)NC(=O)[C@H](CC(N)=O)NC(=O)[C@H](Cc4ccccc4)NC3=O)CS[C@H]2C)NC(=O)[C@H](C)NC1=O [L6A]
Cerep SafetyScreen 44 % Inhibition NMDA [7]: 15% | Minimum Inhibitory Concentration Mycobacterium phlei [5]: 4 µg/mL | Cerep SafetyScreen 44 % Inhibition Ca2+ Channel [8]: 3% | Cerep SafetyScreen 44 % Inhibition Kv Channel [9]: 8% | Cerep SafetyScreen 44 % Inhibition Nav Channel [10]: 8% | Cerep SafetyScreen 44 % Inhibition BZD (central) [11]: -6% | HepG2 EC50 ([6]; HepG2 cytotoxicity): 466 µg/mL

CC1(C)S[C@@H]2[C@H](NC(=O)[C@H](N)c3ccccc3)C(=O)N2[C@H]1C(=O)O [ampicillin]
MIC [12]: 1 µg/mL (≈ 2.86 µM)

CC1COc2c(N3CCN(C)CC3)c(F)cc3c(=O)c(C(=O)O)cn1c23 (stereo not drawn) [Ofloxacin]
MIC [13]: 1000 µg/mL (≈ 2770 µM)

C=C1NC(=O)[C@H](Cc2c[nH]c3ccccc23)NC(=O)[C@H](NC(=O)[C@H](CCCCN)NC(=O)[C@@H](N)Cc2ccccc2)CSC[C@@H](C(=O)N[C@H]2C(=O)N3CCC[C@H]3C(=O)NCC(=O)N[C@H](C(=O)N[C@@H](C)C(=O)N[C@@H](CCCNC(=N)N)C(=O)N/C(=C\C)C(=O)NCC(=O)N[C@@H]3CSC[C@@H]4NC(=O)[C@H](Cc5ccc(O)cc5)NC(=O)[C@@H](CS/C=C\NC4=O)NC(=O)[C@H](CC(N)=O)NC(=O)[C@H](Cc4ccc(O)cc4)NC3=O)CS[C@H]2C)NC(=O)[C@H](CC(C)C)NC1=O [F17Y]
Cerep SafetyScreen 44 % Inhibition NMDA ([7]; […]): 12% | Minimum Inhibitory Concentration Mycobacterium phlei [5]: 2 µg/mL | Cerep SafetyScreen 44 % Inhibition Ca2+ Channel [14]: -7% | Cerep SafetyScreen 44 % Inhibition Kv Channel [15]: 2% | Cerep SafetyScreen 44 % Inhibition Nav Channel [16]: 2% | Cerep SafetyScreen 44 % Inhibition BZD (central) [17]: -10% | HepG2 EC50 ([6]; HepG2 cytotoxicity): 514 µg/mL

C=C1NC(=O)[C@H](Cc2c[nH]c3ccccc23)NC(=O)[C@H](NC(=O)[C@H](CCCCN)NC(=O)[C@@H](N)Cc2ccccc2)CSC[C@@H](C(=O)N[C@H]2C(=O)N[C@@H](Cc3c[nH]cn3)C(=O)NCC(=O)N[C@H](C(=O)N[C@@H](C)C(=O)N[C@@H](CCCNC(=N)N)C(=O)N/C(=C\C)C(=O)NCC(=O)N[C@@H]3CSC[C@@H]4NC(=O)[C@H](Cc5ccc(O)cc5)NC(=O)[C@@H](CS/C=C\NC4=O)NC(=O)[C@H](CC(N)=O)NC(=O)[C@H](Cc4ccccc4)NC3=O)CS[C@H]2C)NC(=O)[C@H](CC(C)C)NC1=O [P9H]
Minimum Inhibitory Concentration Mycobacterium phlei [5]: 4 µg/mL | HepG2 EC50 ([6]; 24 h): 218 µg/mL

C=C1NC(=O)[C@H](C(C)C)NC(=O)[C@H](NC(=O)[C@H](CCCCN)NC(=O)[C@@H](N)Cc2ccccc2)CSC[C@@H](C(=O)N[C@H]2C(=O)N3CCC[C@H]3C(=O)NCC(=O)N[C@H](C(=O)N[C@@H](C)C(=O)N[C@@H](CCCNC(=N)N)C(=O)N/C(=C\C)C(=O)NCC(=O)N[C@@H]3CSC[C@@H]4NC(=O)[C@H](Cc5ccc(O)cc5)NC(=O)[C@@H](CS/C=C\NC4=O)NC(=O)[C@H](CC(N)=O)NC(=O)[C@H](Cc4ccccc4)NC3=O)CS[C@H]2C)NC(=O)[C@H](CC(C)C)NC1=O [W4V]
Minimum Inhibitory Concentration Mycobacterium phlei [5]: 4 µg/mL | HepG2 EC50 ([6]; 24 h): > 1002

C=C1NC(=O)[C@H](Cc2c[nH]c3ccccc23)NC(=O)[C@H](NC(=O)[C@H](CCCCN)NC(=O)[C@@H](N)Cc2ccccc2)CSC[C@@H](C(=O)N[C@H]2C(=O)N3CCC[C@H]3C(=O)NCC(=O)N[C@H](C(=O)N[C@@H](C)C(=O)N[C@@H](CCCNC(=N)N)C(=O)N/C(=C\C)C(=O)NCC(=O)N[C@@H]3CSC[C@@H]4NC(=O)[C@H](Cc5ccc(O)cc5)NC(=O)[C@@H](CS/C=C\NC4=O)NC(=O)[C@H](CC(N)=O)NC(=O)[C@H](Cc4ccccc4)NC3=O)CS[C@H]2C)NC(=O)[C@H]([C@@H](C)O)NC1=O [L6T]
Minimum Inhibitory Concentration Mycobacterium phlei [5]: 4 µg/mL | HepG2 EC50 ([6]; 24 h): 541 µg/mL

gallidermin (IASKFLCTPGCAKTGSFNSYCC; thioether (positions not given here); also: lanthionine/methyllanthionine bridges, places not given here; UniProt P21838 31-52, looked up) [lantibiotic cited from literature]
MIC increase of C. difficile ([18]; cpr resistance): 2–4 fold | MIC of C. difficile ([18]; level after MIC increase (cpr)): ~1 µg/mL
